Where “and” joins values, the source holds several entries; their conditions need not be identical. Equal entries are not always repeated.
How the values were obtained:
[1] = biological target: T1, purified resistance-associated esterase (E4) (Myzus persicae, UniProt P35501); assay: Esterase interference assay (indirect determination of esterase inhibition); type: biochemical; settings: for Esterase protection (%) after pre-incubation with compound: no esterase = 0%, uninhibited E4 = 100%; for Reduction of esterase protection, comparison in words: E4 esterase interference assay, Examples 13 and 16
T1 construct: 5 g of aphids (stored at −20° C.) were homogenised in 0.02 M phosphate buffer pH 7.0; from tissue; host or cells: whole Myzus persicae aphids, clone 794JZ; homogenate purified over G-25 and DEAE Sepharose Fast Flow
T1 sequence (P35501 24-552): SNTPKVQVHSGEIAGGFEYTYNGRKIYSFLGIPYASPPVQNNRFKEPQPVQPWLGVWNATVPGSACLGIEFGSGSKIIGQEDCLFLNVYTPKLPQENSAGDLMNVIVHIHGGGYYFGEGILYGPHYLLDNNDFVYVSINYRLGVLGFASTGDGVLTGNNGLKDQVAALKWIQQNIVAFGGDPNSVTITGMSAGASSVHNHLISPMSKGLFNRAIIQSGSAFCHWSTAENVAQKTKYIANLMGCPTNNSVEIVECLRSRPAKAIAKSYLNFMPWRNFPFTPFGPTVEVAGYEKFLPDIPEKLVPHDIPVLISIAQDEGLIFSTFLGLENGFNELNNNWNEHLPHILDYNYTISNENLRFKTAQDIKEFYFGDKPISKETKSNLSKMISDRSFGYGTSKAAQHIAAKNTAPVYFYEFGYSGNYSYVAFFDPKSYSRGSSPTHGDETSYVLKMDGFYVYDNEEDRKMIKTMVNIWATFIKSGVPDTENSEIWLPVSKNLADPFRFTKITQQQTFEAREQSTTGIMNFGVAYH
From the text: Measuring the in vitro inhibition is not straight forward, as synergists may bind to a site other than the active site.
The esterase used was the well-characterised resistance associated esterase purified from M. persicae, E4, (aphid clone: 794JZ) as per Devonshire (1977) with some modifications(Devonshire A L, The properties of a carboxylesterase from the peach-potato aphid, Myzus persicae (Sulz.) and its role in conferring insecticide resistance. Biochem J 167: 675-683 (1977)). Briefly, 5 g of aphids (stored at −20° C.) were homogenised in 0.02 M phosphate buffer pH 7.0 and centrifuged at 20 000 g for 10 min. The supernatant was passed through a G-25 column using 0.02M Tris/HCl, pH 8.5 buffer. Unretarded fractions containing esterase activity were further chromatographed through DEAF Sepharose Fast Flow (Amersham Biosciences) and eluted with a linear 0-0.35 M NaCl gradient in 500 ml of Tris/HCl as above. Fractions containing carboxylesterase activity in the form of E4 were concentrated, desalted, and buffer exchanged to 0.02 M phosphate pH 7.0 for storage.
Interactions of the purified resistance-associated esterase (E4) with Compound of Example 2, Compound of Example 3, Compound of Example 4, Compound of Example 9 and Compound of Example 11 were performed using the ‘esterase interference assay’, as described by Khot et al., with some modifications. Devonshire A L, The properties of a carboxylesterase from the peach-potato aphid, Myzus persicae (Sulz.) and its role in conferring insecticide resistance. Biochem J 167: 675-683 (1977)). Briefly, stock solutions of novel synergists (3 mM in acetone) were pre-incubated with pure E4, to give a final concentration of 0.03 mM, for 16 h at 4° C. Aliquots (15 μl ) of E4, E4+Compound of Example 2, E4+Compound of Example 3, E4+Compound of Example 4, E4+Compound of Example 9 and E4+Compound of Example 11 were incubated for 1 h with 60 μl of serial dilutions of azamethiphos in 0.02M phosphate buffer, pH 7, in separate wells of a NUNC microplate. Aliquots (25 p1) of house fly head homogenate (source of AChE) were added to each well and incubated for 15 minutes at room temperature. E4 in acetone and buffer only served as the positive and the negative controls respectively. AChE activity was measured at 405 nm using a Tmax kinetic microplate reader (Molecular Devices, Menlo Park, Calif.). Readings were taken automatically for 10 min at 10 s intervals. The rate (mOD min^−1) was calculated by the integrated software, Softmax Pro 4.6. All treatments were performed in triplicate.
No added esterase is giving 0% esterase protection and uninhibited esterase (E4) is giving 100% protection.
The materials and procedure as stated in Example 13, paragraphs 13.1, 13.1.2, 13.1.2.1 and 13.1.2.2. have been used and the following results have been obtained: […]

Myzus persicae = assay: Topical application bioassay on aphid clones: imidacloprid with or without synergist pre-treatment; settings: for RF, resistance factor (LC50 resistant / LC50 susceptible population): imidacloprid; for LC50 (lethal concentration of imidacloprid to kill 50% of the population): imidacloprid alone, topical, scored 72 h
Experimental: Aphid clones were reared on Chinese cabbage (Brassica rapa L. var. Pekinensis c.v Wong Bok) (Brassicaceae) leaves held in small plastic box-cages maintained at 18±2° C. with a 16:8 h light:dark photoperiod (Blackman R L, Variation in the photoperiodic response within natural populations of Myzus persicae (Sulzer). Bull Ent Res 60: 533-546 (1971)).
Clone 4106A is a laboratory insecticide-susceptible standard2 . […] Both aphid clones have been established from single parthenogenetic M. persicae females (Foster S P, Denholm I, Thompson R, Poppy G M, Powell W, Reduced response of insecticide-resistant aphids and attraction of parasitoids to alarm pheromone; a potential fitness trade-off. Bull Ent Res 95: 37-46 (2005)).
12.1.2 Topical Application Bioassay with 5191A Aphid Clone Young apterae were transferred to the abaxial surface of Chinese cabbage leaf discs (10 adults per leaf disc, at least 3 replicates per concentration) held on 1% agar in plastic containers (4 cm in diameter). The upper edge of each container was coated with Fluon (Whitford Plastics, UK) to prevent subsequent aphid escape from the leaf surface. After allowing 2 h for the aphids to settle, each was dosed with 0.25 μl of either 1 g L^−1 Compound of Example 3 dissolved in acetone or acetone only. After 4 h aphids were further treated with 0.25 μl imidacloprid in acetone (96% AR) using a
Burkard microapplicator (Burkard, Rickmansworth, UK). Controls were treated with acetone only. Treated aphids were stored at 18±2° C. and 16 h light: 8 h dark photoperiod. All bioassays were scored at the endpoint of 72 h after treatment. Adults incapable of co-ordinated movement (after gentle touching with a paint brush if necessary) were scored as dead. All bioassays were completed in triplicate.

[2] = system: pollen beetle, Meligethes aeneus; assay: Full dose response bioassay (α-cypermethrin), coated glass vials, IRAC method no 11; type: in vivo; settings: for LC50 (lethal concentration of α-cypermethrin to kill 50% of the population): 24 h
Experimental: (§1) Two pyrethroid resistant populations originating from two different areas in Poland ‘Rogalin'and lebork’ were collected in July 2008. A putative susceptible population, UK population, was also collected in July 2008 in Hertfordshire, UK. All populations were collected from oilseed rape contained adults only and were kept at room temperature before assays were performed.
To characterise the response of the 3 above pollen beetle populations against α-cypermethrin full dose response bioassays were carried out. The bioassay method used was based on the method recommended by the Insecticide Resistance Action Committee (IRAC method no 11). Briefly, glass vials (5.7 cm height and 2.3 cm diameter) were coated with 0.5 ml of a serial dilutions of insecticide, dissolved in acetone, (α-cypermethrin) and rolled upon a blood-roller (Luckham Multimix Major, Denley Instruments Ltd) at room temperature until the solutions had completely evaporated. Five to 20 non-sexed adult pollen beetles were placed into a vial for each replicate and the top loosely closed with a screw-cap. Three replicates were used at each insecticide concentration, 7 concentrations in all. Vials treated with acetone only were used as controls.
(§2) Treated vials including the pollen beetles were stored in constant environment facilities at 18±2° C. and 16L: 8D. All bioassays were scored at an endpoint of 24 h after exposure to the insecticide. Insects incapable of coordinated movement (after gentle touching with a pencil brush if necessary) were scored as dead.

[3] = system: pollen beetle, Meligethes aeneus; assay: Discriminating dose bioassay: α-cypermethrin in mixture with synergist; type: in vivo; settings: Brassicogethes aeneus; for mortality at 0.3 ppm: 0.3 ppm α-cypermethrin alone
Experimental: as §1
Bioassays incorporating the compounds (Compound of Example 2 and Compound of Example 3) dissolved in acetone, were carried out using a diagnostic concentration of α-cypermethrin derived from the above full dose response bioassays in a mixture of 0.01 g L^−1 of the compounds. The concentration of α-cypermethrin used for the discriminating dose bioassays was 0.3 ppm α-cypermethrin for the two polish populations, Rogalin and Lebork and 0.03 ppm α-cypermethrin for UK population. Vials treated with the compounds only, dissolved in acetone and acetone only were used as controls. Ten to 15 replicates were used for each treatment depending on insect numbers within the population. Compounds concentrations chosen conferred no mortality in preliminary bioassays.
as §2

[4] = Table 2 (Example 13), 0.03 mM compound pre-incubated with E4 16 h at 4° C.
[5] = second 'TABLE 3' (Example 16), procedure as Example 13

Compound: C#CCOc1ccc2c(c1)OCO2 [Example 1, 5-(propargyloxy)-benzo[1,3]dioxole, reference compound]
- Esterase protection (%) after pre-incubation with compound [1, 4]: 63.9%
- Esterase protection (%) after pre-incubation with compound [1, 5]: 63.90%

Compound: C#CCOc1cc2c(cc1CCC)OCO2 [Example 4, 5-(propargyloxy)-6-propyl-benzo[1.3]dioxole]
- Reduction of esterase protection, comparison in words [1]: worse activity than the compound of Example 3
- Esterase protection (%) after pre-incubation with compound [1, 4]: 2.06%
- Esterase protection (%) after pre-incubation with compound [1, 5]: 2.06%

Compound: C#CCOc1cc(OC)c(OC)cc1CCC [Example 7, 1-(propargyloxy)-6-propyl-3,4-dimethoxybenzene]
- Esterase protection (%) after pre-incubation with compound [1, 5]: 15.17%

Compound: CC#CCOc1cc(OC)c(OC)cc1CCC [Example 8, 1-(but-2-ynyloxy)-6-propyl-3,4-dimethoxybenzene]
- Reduction of esterase protection, comparison in words [1]: better activity than compounds 4, 7, respectively
- Esterase protection (%) after pre-incubation with compound [1, 5]: 5.09%

Compound: CC#CCOc1cc2c(cc1COCCOCCOCCCC)OCO2 [Example 9, 5-[2-(2-butoxyethoxy)-ethoxy]methyl-6-(but-2-ynyloxy)-benzo[1.3]dioxole]
- Esterase protection (%) after pre-incubation with compound [1, 4]: 2.96%

Compound: CC#CCOc1cc2c(cc1CCC)CCO2 [Example 11, 6-(but-2-ynyloxy)-5-propyl-2,3-dihydrobenzofuran]
- Esterase protection (%) after pre-incubation with compound [1, 4]: −1.17%

Compound: O=[N+]([O-])NC1=NCCN1Cc1ccc(Cl)nc1 [imidacloprid]
- RF, resistance factor (LC50 resistant / LC50 susceptible population) (Myzus persicae; aphid clone 4106A (susceptible reference)): 1
- LC50 (lethal concentration of imidacloprid to kill 50% of the population) (Myzus persicae; aphid clone 4106A (susceptible, S)): 1.6 ppm
- RF, resistance factor (LC50 resistant / LC50 susceptible population) (Myzus persicae; aphid clone 5191A versus 4106A): 56.5
- LC50 (lethal concentration of imidacloprid to kill 50% of the population) (Myzus persicae; aphid clone 5191A, FE4(R3) resistant): 90.5 ppm

Compound: CC1(C)C(C=C(Cl)Cl)C1C(=O)OC(C#N)c1cccc(Oc2ccccc2)c1 (stereo not drawn) [α-cypermethrin]
- LC50 (lethal concentration of α-cypermethrin to kill 50% of the population) ([2]; Lebork population (pyrethroid resistant, Poland)): 95.0 ηg/cm^2
- RF, resistance factor (LC50 resistant / LC50 susceptible population) ([2]; Lebork versus UK population): 44
- LC50 (lethal concentration of α-cypermethrin to kill 50% of the population) ([2]; Rogalin population (pyrethroid resistant, Poland)): 65.0 ηg/cm^2
- RF, resistance factor (LC50 resistant / LC50 susceptible population) ([2]; Rogalin versus UK population): 23 and 23.21
- LC50 (lethal concentration of α-cypermethrin to kill 50% of the population) ([2]; UK population (putative susceptible)): 2.80 ηg/cm^2
- RF, resistance factor (LC50 resistant / LC50 susceptible population) ([2]; UK population (reference)): 1
- mortality at 0.3 ppm ([3]; 24 h, Lebork): 4.9%
- mortality at 0.3 ppm ([3]; 24 h, Rogalin): 2.78%
- mortality at 0.03 ppm ([3]; 24 h, UK population, 0.03 ppm α-cypermethrin alone): 13.6%
- mortality at 0.3 ppm ([3]; Rogalin and Lebork): ~5%
